Results on 34 molecules are retold here after EPA's ToxValDB 9.5.

The test system of one series is Oryctolagus sp. Particulars: reproduction developmental.
The subject of the next series is Danio rerio. Particulars: acute; duration: 96 hours; mortality.
The next series has as its system Folsomia candida. Particulars: chronic/long-term; duration: 28 days; reproduction.
A further series concerns Landoltia sp. Particulars: acute, frond number.
A further series relates to Hypoaspis aculeifer. Particulars: chronic/long-term; duration: 14 days; mortality.
Another series concerns Sus scrofa. Particulars: Not specified.
For a further series, the system named is Ovis sp. Particulars: for LD50: acute, mortality.
The test system of the next series is Bovidae. Particulars: subchronic; duration: 57 days; oral; diet; no effects.
The subject of the next series is Phasianus sp. Particulars: acute; oral; unspecified; mortality.
The next series concerns Pontoscolex corethrurus. Particulars: mortality; for LC50: acute.
For the next series, the system named is Daphnia magna. Particulars: for NOEC: chronic/long-term, duration: 21 days, reproduction.
For the next series, the system named is Pimephales promelas. Particulars: chronic/long-term.
For the next series, the system named is Lepomis macrochirus. Particulars: acute; duration: 96 hours; mortality.
In the next series the test system is Bibionidae. Particulars: chronic/long-term; duration: 28 days; development.
A further series concerns Apis mellifera. Particulars: acute, mortality.
Setting [1] is: short-term, oral, feed, mortality.

Molecules are shown by their SMILES. ≈ marks a conversion by molar mass, not a printed value. Where “and” joins values, the source holds several entries; their conditions need not be identical. Equal entries are not always repeated.

A word on the NOAEL: it is the highest dose or exposure tested at which no adverse effect was seen. Turning to `c1nc[nH]n1` [1H-1,2,4-Triazole], the NOAEL with Rattus norvegicus (chronic, duration: 12 months, body weight) was 6.9 mg/kg-day; with Rattus norvegicus (reproduction developmental), 17 mg/kg-day (2×) and 30 mg/kg-day (2×); in the series with Oryctolagus sp. (body weight), 30 mg/kg-day. For the same molecule, the LC50 with Anas platyrhynchos (setting [1]) is above 1350 mg/kg-day; with Colinus virginianus (acute, oral, diet, mortality), above 1410 mg/kg-day.
With `COC(=O)c1ccccc1O` [Methyl salicylate], the NOAEL in the series on Rattus norvegicus (chronic, duration: 2 years, oral, growth) amounted to 50 mg/kg-day; in the series with Canidae (chronic, duration: 2 years, Dog Other), 50 mg/kg-day.
With `C=C(C)[C@H]1CC=C(C)C(=O)C1` [d-Carvone], in the series with Rattus norvegicus (acute, oral, mortality), the LD50 is above 2000 mg/kg-day. Also, the NOAEL in the series on Rattus norvegicus (reproduction developmental, organ weight) was 30 mg/kg-day. Further, the LC50 in the series with Danio rerio is 56 mg/L (≈ 373 µM). Moreover, the results for the NOEC in the series with Folsomia candida, with Landoltia sp. (duration: 192 hours) and with Hypoaspis aculeifer were 25 mg/kg, 4.6 mg/L and at least 200 mg/kg, respectively.
In turn, `OO` [Hydrogen peroxide] had an NOAEL in the series with Mus musculus (subchronic, duration: 90 days, oral, drinking water, M/F, food consumption) of 100 mg/kg-day.
Broadly, the LOAEL is the lowest dose or exposure tested at which an adverse effect was seen. As for `C=C(C)[C@@H]1NC(=O)[C@@H](NC)[C@@H](O)c2cc(Cl)c(O)c(c2)O[C@](C)(CC)[C@@H](C(=O)N2CC=C[C@H]2C(=O)N/C(C(=O)N/C(=C/C(=O)O)C(=O)O)=C(\C)CC)NC1=O` [Phomopsin], the LD50 is 0.848 mg/kg with Sus scrofa (acute, mortality); at least 0.017 mg/kg with Ovis sp. (injection, subcutaneous); 1.34 mg/kg with Ovis sp. (oral). This molecule also returned an LOAEL in the series on Ovis sp. (subchronic, clinical chemistry) of 12.5 mg/kg-day.
As for `P` [Phosphine], the NOAEL in the series with Rattus norvegicus (chronic, duration: 2 years, inhalation) was 1.1 mg/kg-day; with Rattus norvegicus (reproduction developmental, inhalation, mortality) it was 1.9 mg/kg-day; in the series with Rattus norvegicus (subchronic, duration: 90 days, inhalation, mortality), 1.1 mg/kg-day. Also, the LC50 in the series on Danio rerio worked out at 0.048 mg/L (≈ 1.41 µM).
`CSCCC(O)C(=O)[O-].CSCCC(O)C(=O)[O-].[Cu+2]` (configuration not stated) [Copper, bis[2-(hydroxy-?O)-4-(methylthio)butanoato-?O]-]: the LEL is 340 mg/kg-day with Sus scrofa (subchronic, duration: 42 days, oral, diet, body weight); 45 mg/kg-day in the series on Bovidae; 75 mg/kg-day in the series with Gallus gallus (subchronic, duration: 8 weeks, oral, diet, clinical chemistry); 500 mg/kg-day with Gallus gallus (subchronic, duration: 35 days, oral, diet, M, other).
For `CSCCC(O)C(=O)[O-].CSCCC(O)C(=O)[O-].[Mn+2]` (configuration not stated) [Manganese, bis[2-(hydroxy-?O)-4-(methylthio)butanoato-?O]-], the LEL in the series on Sus scrofa (subchronic, duration: 42 days, oral, diet, clinical chemistry) worked out at 150 mg/kg-day; in the series on Bovidae it was 450 mg/kg-day; in the series with Gallus gallus (subchronic, duration: 8 weeks, oral, diet, no effects) it was 450 mg/kg-day.
Consider `OC[C@H]1O[C@@H]2O[C@H]3[C@H](O)[C@@H](O)[C@@H](O[C@H]4[C@H](O)[C@@H](O)[C@@H](O[C@H]5[C@H](O)[C@@H](O)[C@@H](O[C@H]6[C@H](O)[C@@H](O)[C@@H](O[C@H]7[C@H](O)[C@@H](O)[C@@H](O[C@H]1[C@H](O)[C@H]2O)O[C@@H]7CO)O[C@@H]6CO)O[C@@H]5CO)O[C@@H]4CO)O[C@@H]3CO` [alpha-Cyclodextrin], for which the NOAEL with Canidae (subchronic, duration: 90 days, oral, diet, M/F, Beagle, no effects) came out at 10000 mg/kg-day.
For `O=c1c(CO)c/c(=N/Nc2ccc(S(=O)(=O)[O-])c3ccccc23)c(=O)/c1=N/Nc1ccc(S(=O)(=O)[O-])c2ccccc12.[Na+].[Na+]` [Chocolate Brown HT], the no observed adverse effect level (NOAEL) with Mus musculus (chronic, duration: 80 weeks, oral, diet, M/F, histopathology: nonneoplastic) was found to be 143 mg/kg-day.
Molecule `CC=Cc1ccc(OC)c(OC)c1` [4-Prop-1-enylveratrole] yielded an NOAEL in the series on Rattus norvegicus (short-term, duration: 28 days, oral, organ weight) of 100 mg/kg-day and an NOAEL (repeat dose other) of 6 mg/kg-day.
In the case of `CC(C)(C)c1ccc(CSc2cnn(C(C)(C)C)c(=O)c2Cl)cc1` [Pyridaben], the NOEC with Rattus norvegicus (chronic, M, body weight) is 3.2 mg/kg-day; in the series on Anas platyrhynchos (chronic/long-term), 10 mg/kg-day; in the series with Anas platyrhynchos (setting [1]), 659 mg/kg-day. For the same molecule, in the series on Colinus virginianus (acute, oral, mortality), the LD50 was above 2250 mg/kg-day.
For the molecule `Cc1cc(OC2OC(CO)C(O)C(O)C2O)ccc1C(=O)C(C)(C)NC(=O)c1sccc1C` (configuration not stated), the NOAEL with Canidae (chronic, duration: 1 years, Dog Other, body weight) stood at 1.57 mg/kg-day; with Canidae (subchronic, duration: 90 days, oral, Dog Other, body weight) it was 5.34 mg/kg-day.
On to `Cc1nc(N(C)C)nc(OC(=O)N(C)C)c1C` [Pirimicarb], for which the LD50 in the series with Colinus virginianus (acute, duration: 2 hours, oral, gavage, M/F, mortality) amounted to 20 mg/kg; in the series on Colinus virginianus (acute, oral, diet, mortality) it was 370 mg/kg.
As for `C=C(C)C1CC=C(CO)CC1` (configuration not stated) [4-Isopropenylcyclohex-1-en-1-ylmethanol], the LEL was 120 mg/kg-day in the series on Rattus norvegicus (subchronic, duration: 90 days, oral, gavage, F, no effects) and 120 mg/kg-day with Canidae (subchronic, duration: 90 days, Dog Other, no effects).
Consider `Clc1ccc(C(c2ccccc2Cl)C(Cl)Cl)cc1` (configuration not stated) [1-(2-Chlorophenyl)-1-(4-chlorophenyl)-2,2-dichloroethane], for which, in the series on Ovis sp. (subchronic, oral, diet, F, no effects), the LEL is 0.3 mg/kg-day.
`CC(C)(c1ccc(O)cc1)c1ccc(O)cc1` [Bisphenol A]: in the series with Mus musculus (reproduction developmental, M/F, CD1, organ weight), the NOAEL is 5 mg/kg-day.
For the molecule `C/C=C/C(=O)Oc1ccccc1[N+](=O)[O-].CCCCCCCC.O=NO` [Dinocap], the LD50 in the series on Anas platyrhynchos (setting [1]) was 367 mg/kg-day; in the series on Colinus virginianus (acute, oral, mortality) it was above 2150 mg/kg-day. The NOAEL with Oryctolagus sp. (oral) was determined as 3 mg/kg-day; with Canidae (chronic, duration: 2 years, oral, Dog Other, ophthalmoscopic examination), 0.4 mg/kg-day. The same molecule displayed an NOEL in the series with Colinus virginianus (reproduction developmental, reproduction) of 27.5 mg/kg-day.
Molecule `C[C@H]1CCCC(=O)CCC/C=C/c2cc(O)cc(O)c2C(=O)O1` [Zearalenone] gave an NOEL in the series on Sus scrofa (reproduction developmental, F, morphology) of 0.01 mg/kg-day.
With `C=CCOC(Cn1ccnc1)c1ccc(Cl)cc1Cl` (configuration not stated) [Imazalil], the results for the NOAEL in the series with Oryctolagus sp. (food consumption) and in the series with Oryctolagus sp. (histopathology: nonneoplastic) were 10 mg/kg-day and 5 mg/kg-day, respectively.
With `CC(=O)Sc1cc(C)oc1C` [Ethanethioic acid, S-(2,5-dimethyl-3-furanyl) ester], the NOAEL in the series on Rattus norvegicus (subchronic, duration: 90 days) worked out at 0.73 mg/kg-day and the NOAEL (subchronic, duration: 90 days) was 0.73 mg/kg-day.
`CNC(=O)CSP(=O)(OC)OC` [Omethoate]: in the series with Rattus norvegicus (acute, duration: 4 hours, inhalation, mortality), the LC50 was found to be 0.287 mg/L (≈ 1.35 µM). In addition, the NOAEL with Rattus norvegicus (acute, oral, clinical signs) was found to be 0.2 mg/kg-day; in the series on Rattus norvegicus (reproduction developmental, clinical chemistry), 0.03 mg/kg-day; in the series on Canidae (chronic, duration: 12 months, oral, gavage, Dog Other, clinical chemistry) it was 0.025 mg/kg-day. Besides, the LOAEL in the series on Rattus norvegicus (chronic, duration: 2 years, clinical chemistry) came out at 0.04 mg/kg-day. In addition, the LD50 with Phasianus sp. came to 29 mg/kg; in the series on Colinus virginianus (acute, oral, mortality) it was 9.9 mg/kg.
In the case of `Oc1cccc(O)c1` [Resorcinol], the NOAEL in the series on Rattus norvegicus (chronic, duration: 103 weeks, oral, gavage, Fischer 344, neurology) is 36 mg/kg-day; in the series with Mus musculus (chronic, duration: 104 weeks, clinical signs), 36 mg/kg-day.
`ClC(Cl)=C(c1ccc(Cl)cc1)c1ccc(Cl)cc1` [p,p'-DDE] registered an LOAEL with Anas platyrhynchos (reproductive, development) of 0.6 mg/kg-day.
`Clc1ccc(C(c2ccc(Cl)cc2)C(Cl)Cl)cc1` [p,p'-DDD] showed an NOAEL in the series on Anas platyrhynchos (not reported, other) of 0.06 mg/kg-day.
In the series on Pontoscolex corethrurus, `C/C=C(\C)C(=O)O` [2-Butenoic acid, 2-methyl-, (2E)-] showed an LC50 of 2010 mg/kg.
On to `CC/C=C\CCOC(C)OCC` (stereo not drawn) [Acetaldehyde ethyl cis-3-hexenyl acetal], for which the LC50 in the series with Pontoscolex corethrurus turned out to be 238 mg/kg; in the series with Daphnia magna (acute, mortality) it was 12 mg/L (≈ 69.7 µM).
`C[C@@H]1C/C=C/C=C/C=C/C=C/[C@H](O[C@@H]2O[C@H](C)[C@@H](O)[C@H](N)[C@@H]2O)C[C@@H]2O[C@](O)(C[C@@H](O)C[C@H]3O[C@@H]3/C=C/C(=O)O1)C[C@H](O)[C@H]2C(=O)O` [Natamycin]: the NOAEL came to 22.4 mg/kg-day in the series on Rattus norvegicus (chronic, duration: 2 years, oral, diet, growth) and 6.25 mg/kg-day in the series on Canidae (chronic, duration: 2 years, oral, diet, M/F, Beagle, body weight).
Molecule `[Al+3].[Na+].[O-][Si]([O-])([O-])[O-]` [Sodium aluminium silicate] gave an LC50 in the series on Danio rerio above 100 mg/L. Also, the NOEC came to 86.7 mg/L with Pimephales promelas (duration: 30 days, growth) and 10 mg/L in the series on Daphnia magna.
In turn, `O=C1[N-]S(=O)(=O)c2ccccc21.[Na+]` [Sodium saccharin] gave an NOEC with Pontoscolex corethrurus (reproductive, duration: 56 days) of 100 mg/kg.
With `CCOc1cc(Oc2ccc(C(F)(F)F)cc2Cl)ccc1[N+](=O)[O-]` [Oxyfluorfen], the NOEC in the series on Landoltia sp. (duration: 14 days) came out at 0.00195 mg/L; in the series with Bibionidae, 80 µg/L; in the series on Pimephales promelas (duration: 34 days, reproduction) it was 0.038 mg/L; in the series with Daphnia magna, 0.013 mg/L. The same molecule came in with an LC50 in the series with Lepomis macrochirus of 210 µg/L (≈ 0.581 µM).
On to `CN1COCN(Cc2cnc(Cl)s2)/C1=N/[N+](=O)[O-]` [Thiamethoxam], for which the LD50 was 0.024 µg/piece (2×) and 0.0121 µg/piece in the series on Apis mellifera (dermal); 0.00631 µg/piece in the series with Apis mellifera (duration: 48 hours, oral, unspecified); 5.55 g/ha with Apis mellifera (duration: 72 hours, dermal); 0.005 µg/piece (3×) and 0.00936 µg/piece in the series on Apis mellifera (oral, unspecified).
Consider `[I-].[K+]` [Potassium iodide], for which the LEL came to 8 mg/kg-day in the series with Sus scrofa (repeat dose other, no effects) and 5 mg/kg-day in the series with Gallus gallus (repeat dose other, no effects).
Regarding `CC1=C(/C=C/C(C)=C/C=C/C(C)=C/C=C/C=C(C)/C=C/C=C(C)/C=C/C2=C(C)C(=O)[C@@H](O)CC2(C)C)C(C)(C)C[C@H](O)C1=O` [3,3'-Dihydroxy-beta-carotene-4,4'-dione], the NOAEL in the series with Mus musculus (chronic, duration: 80 weeks, oral, body weight) turned out to be 14 mg/kg-day.
